Here are results for three compounds from US20230255972A1, “PYRIMIDINE COMPOUND-CONTAINING COMBINATION TO BE USED IN TUMOR TREATMENT” (TAIHO PHARMACEUTICAL CO., LTD., priority 2020, published 2023).

The subject of one data set is NCI-H1975 cells. The experiment in a line: Growth inhibitory activity against NCI-H1975 (L858R and T790M mutant EGFR-positive). The following applies: Homo sapiens, NCI-H1975, 72 h; 3 days; read-out: Cell growth inhibitory activity GI 50 value, NCI-H1975. It counts as cell-based. The protocol: Test Example 7 Measurement of Growth Inhibitory Activity Against EGFR Overexpressing Cell Line and Exon 20 Insertion Mutant EGFR Expressing Cell Line
Growth inhibitory activity against an EGFR overexpressing cell line and an exon 20 insertion mutant EGFR expressing cell line was evaluated using MDA-MB-468 cells (ATCC) as an EGFR overexpressing human breast cancer cell line; NCI-H1975 cells (ATCC) as L858R and T790M mutant EGFR-positive human lung cancer cells; and MCF10A_EGFR cells, MCF10A_EGFR/V769_D770insASV cells, MCF10A_EGFR/D770_N771insSVD cells, and MCF10A_EGFR/H773_V774insNPH cells (Fukushima Medical University) which were cells obtained by introducing the EGFR gene (WT, […], D770_N771insSVD mutant, H773_V774insNPH mutant) into MCF10A cells as human normal mammary gland cells.
The MDA-MB-468 cells were suspended in Leibovitz's L-15 medium containing 10% inactivated fetal bovine serum. The NCI-H1975 cells were suspended in RPMI-1640 medium containing 10% inactivated fetal bovine serum. The MCF10A_EGFR cells, the MCF10A_EGFR/V769_D770insASV cells, the MCF10A_EGFR/D770_N771insSVD cells, or the MCF10A_EGFR/H773_V774insNPH cells were suspended in DMEM/Ham's F-12 medium (containing L-glutamine, phenol red, HEPES, and sodium pyruvate) containing 10 μg/mL insulin, 500 ng/mL hydrocortisone, 5 μmol/L forskolin, and 5% inactivated horse serum in terms of their final concentrations. Each cell suspension was seeded in each well of a 96-well flat-bottom plate such that the number of cells per well was 500, and was then cultured in a carbon dioxide gas-free culture vessel for the MDA-MB-468 cells and in a 5% carbon dioxide gas-containing culture vessel for the other cells at 37° C. for 1 day. The pyrimidine compound of the present invention was prepared at 1 mM in DMSO and then diluted 1/200 with a medium to prepare a 5 μM solution. […]
The cells at the start of the culture (day 0) and after the culture (day 3) were counted using CellTiter-Glo(R) 2.0 Reagent (Promega Corp.) according to the protocol recommended by the manufacturer. […]

A further data set has as its system NCI-N87-Luc. The experiment in a line: Antitumor effect (in vivo) on direct brain transplantation models of NCI-N87-luc. Set-up: species or system nude mouse. The following applies: 25 mg/kg/day po once a day, Days 1-21. The source says: Test Example 11 Antitumor Effect Confirmation Test (In Vivo) on Direct Brain Transplantation Models, into which Luciferase Gene-Introduced HER2 Expressing Cell Line (NCI-N87-luc) is Directly Transplanted
In order to confirm the antitumor effects of a test compound on direct brain transplantation models, NCI-N87-Luc, which was obtained by introducing a Luciferase gene into NCI-N87 that was a human stomach cancer tumor cell line purchased from American Type Culture Collection, was used.
The NCI-N87-Luc cells were re-suspended in PBS in a concentration of 6.25×10^7 cells/mL.
A microdrill was used to drill a hole in the skull, and then, using a needle, a manipulator, and a syringe pump, 4 μL of the cell suspension was transplanted into the brain at a rate of 0.8 μL/min.
As a reference of the amount of brain tumor, approximately 3 weeks after the transplantation, Total Flux (Photon/sec) was measured in all of the survival cases, using IVIS (PerkinElmer, Inc., model: Lumina II). Based on the obtained results, 6 animals were assigned to each group, using the grouping program of MiSTAT (Ver. 2.00).
The test compound was orally administered to the mice once a day, every day, for 21 days from the following day of the grouping (Days 1-21). […]
The value obtained by logarithmic transformation (Log 10) of the total flux on Day 22 in each group was analyzed by a Dunnett's test or a Student-t test. […]

The target of a further data set is T1, EGFR [d746-750] (Homo sapiens, UniProt P00533, DEL746-750).
T1 construct: purchased Carna Biosciences, Inc
The experiment in a line: Phosphorylation activity inhibitory effect (in vitro) on mutant EGFR d746-750. It counts as biochemical. The procedure:
(§1) Test Example 6 Measurement of Phosphorylation Activity Inhibitory Effect (In Vitro) on Wild-Type and Mutant EGFR
(§2) The measurement of the in vitro inhibitory activity of a compound against wild-type and mutant EGFR was outsourced to Carna Biosciences, Inc. (Kinase Profiling Book, https://www.carnabio.com/japanese/product/search.cgi?mode=profiling).
(§3) Specifically, first, the pyrimidine compound of the present invention was diluted stepwise with dimethyl sulfoxide (DMSO). […] To the reaction solution, Termination Buffer was added, so as to terminate the kinase reaction. Finally, using LabChip™ EZ Reader II (PerkinElmer), an unphosphorylated substrate peptide (S) and a phosphorylated peptide (P) were separated and detected according to microchannel capillary electrophoresis.
(§4) As the pyrimidine compound of the present invention, the compound of Example 11 (Example compound 11) was used.

Another data set deals with T2, EGFR (Homo sapiens, UniProt P00533).
T2 construct: purchased Carna Biosciences, Inc
The experiment in a line: Phosphorylation activity inhibitory effect (in vitro) on wild-type EGFR. It counts as biochemical. The protocol:
as §1, §2, §3, §4

T2 sequence (P00533 25-1210): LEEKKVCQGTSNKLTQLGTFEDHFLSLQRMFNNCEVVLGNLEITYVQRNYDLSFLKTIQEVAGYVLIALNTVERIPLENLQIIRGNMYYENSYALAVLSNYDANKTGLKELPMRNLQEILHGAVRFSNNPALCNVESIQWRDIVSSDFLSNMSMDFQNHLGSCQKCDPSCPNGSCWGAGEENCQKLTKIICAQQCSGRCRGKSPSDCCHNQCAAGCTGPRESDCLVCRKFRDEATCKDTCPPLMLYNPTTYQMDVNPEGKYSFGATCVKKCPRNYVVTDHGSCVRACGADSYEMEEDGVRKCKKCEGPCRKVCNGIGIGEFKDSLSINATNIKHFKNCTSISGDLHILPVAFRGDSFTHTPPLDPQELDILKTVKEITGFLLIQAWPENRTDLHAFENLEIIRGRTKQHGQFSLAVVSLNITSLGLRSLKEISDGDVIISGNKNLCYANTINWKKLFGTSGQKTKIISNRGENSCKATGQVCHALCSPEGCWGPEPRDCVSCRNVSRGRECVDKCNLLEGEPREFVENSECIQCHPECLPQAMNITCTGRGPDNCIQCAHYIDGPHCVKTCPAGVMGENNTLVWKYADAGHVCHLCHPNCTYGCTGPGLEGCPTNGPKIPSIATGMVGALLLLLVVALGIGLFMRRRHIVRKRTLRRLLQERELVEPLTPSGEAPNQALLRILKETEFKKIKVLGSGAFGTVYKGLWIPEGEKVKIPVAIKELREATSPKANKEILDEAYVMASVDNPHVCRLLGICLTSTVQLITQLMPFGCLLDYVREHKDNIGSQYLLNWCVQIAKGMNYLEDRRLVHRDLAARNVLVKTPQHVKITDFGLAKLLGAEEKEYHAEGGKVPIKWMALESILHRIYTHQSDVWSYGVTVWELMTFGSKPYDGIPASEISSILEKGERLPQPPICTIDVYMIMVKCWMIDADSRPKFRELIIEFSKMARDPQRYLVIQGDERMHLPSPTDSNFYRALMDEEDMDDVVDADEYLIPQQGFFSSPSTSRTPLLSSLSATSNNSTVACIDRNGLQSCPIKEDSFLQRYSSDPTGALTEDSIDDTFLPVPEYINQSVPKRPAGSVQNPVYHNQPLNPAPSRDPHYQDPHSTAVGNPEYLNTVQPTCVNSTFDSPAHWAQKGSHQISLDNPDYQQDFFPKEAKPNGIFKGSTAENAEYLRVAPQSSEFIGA
T1 sequence (P00533 with tags, fused parts or gaps DEL746-750): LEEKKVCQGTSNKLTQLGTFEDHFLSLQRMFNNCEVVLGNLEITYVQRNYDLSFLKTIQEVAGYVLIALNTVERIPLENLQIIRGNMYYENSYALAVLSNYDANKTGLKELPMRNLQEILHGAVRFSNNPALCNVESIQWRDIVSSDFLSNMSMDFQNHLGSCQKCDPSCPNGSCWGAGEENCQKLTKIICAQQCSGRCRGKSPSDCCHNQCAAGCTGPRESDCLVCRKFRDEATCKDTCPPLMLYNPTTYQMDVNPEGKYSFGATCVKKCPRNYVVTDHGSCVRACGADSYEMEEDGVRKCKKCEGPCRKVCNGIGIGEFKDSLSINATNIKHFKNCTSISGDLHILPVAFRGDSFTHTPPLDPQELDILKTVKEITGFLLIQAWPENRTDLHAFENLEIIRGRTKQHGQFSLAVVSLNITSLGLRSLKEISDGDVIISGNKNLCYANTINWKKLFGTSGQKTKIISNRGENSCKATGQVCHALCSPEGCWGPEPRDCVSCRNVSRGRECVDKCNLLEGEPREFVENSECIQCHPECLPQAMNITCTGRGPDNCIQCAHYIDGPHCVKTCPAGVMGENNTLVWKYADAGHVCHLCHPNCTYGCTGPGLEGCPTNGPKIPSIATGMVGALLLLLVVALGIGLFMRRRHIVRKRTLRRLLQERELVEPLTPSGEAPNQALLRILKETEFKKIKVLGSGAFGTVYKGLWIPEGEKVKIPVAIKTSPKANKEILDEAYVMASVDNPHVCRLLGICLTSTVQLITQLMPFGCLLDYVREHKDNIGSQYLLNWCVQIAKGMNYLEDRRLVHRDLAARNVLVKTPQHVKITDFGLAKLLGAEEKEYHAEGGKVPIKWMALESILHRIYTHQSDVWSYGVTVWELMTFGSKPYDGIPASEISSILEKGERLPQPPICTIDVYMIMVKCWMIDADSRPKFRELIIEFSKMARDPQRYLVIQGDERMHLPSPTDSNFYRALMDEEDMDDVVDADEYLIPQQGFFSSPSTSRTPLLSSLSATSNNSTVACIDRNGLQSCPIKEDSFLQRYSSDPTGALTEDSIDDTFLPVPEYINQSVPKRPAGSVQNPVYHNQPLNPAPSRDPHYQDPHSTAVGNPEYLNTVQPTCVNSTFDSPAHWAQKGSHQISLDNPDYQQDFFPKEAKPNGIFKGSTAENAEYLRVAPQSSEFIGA

Take `C=CC(=O)N1C[C@H](n2c(C#CC)c(C(=O)N[C@H](C)c3ccccc3)c3c(N)ncnc32)C[C@@H]1C` [Example 2, 7-((3R,5S)-1-acryloyl-5-methylpyrrolidin-3-yl)-4-amino-N—((R)-1-phenylethyl)-6-(prop-1-yn-1-yl)-7H-pyrrolo[2,3-d]pyrimidine-5-carboxamide]: the GI50 in the data set with NCI-H1975 cells was 77 nM. Besides, the “body weight reduction of −20% or more” value with NCI-N87-Luc was “not observed”.

As for `C=CC(=O)N1C[C@H](n2c(C#CC3CC3)c(C(=O)N[C@H](C)c3ccccc3)c3c(N)ncnc32)C[C@@H]1C` [Example 11, 7-((3R,5S)-1-acryloyl-5-methylpyrrolidin-3-yl)-4-amino-6-(cyclopropylethynyl)-N—((R)-1-phenylethyl)-7H-pyrrolo[2,3-d]pyrimidine-5-carboxamide], the GI50 with NCI-H1975 cells is 87 nM. Also, the half-inhibitory concentration (IC50) was 0.25 nM against EGFR [d746-750] and 0.47 nM against EGFR. Further, the “body weight reduction of −20% or more” value in the data set with NCI-N87-Luc was “not observed”.

As to `C=CC(=O)N1C[C@H](n2c(C#CC(C)(C)C)c(C(=O)N[C@H](C)c3ccccc3)c3c(N)ncnc32)C[C@@H]1C` [Example 12, 7-((3R,5S)-1-acryloyl-5-methylpyrrolidin-3-yl)-4-amino-6-(3,3-dimethylbut-1-yn-1-yl)-N—((R)-1-phenylethyl)-7H-pyrrolo[2,3-d]pyrimidine-5-carboxamide], the GI50 in the data set on NCI-H1975 cells stood at 153 nM.
